Measured values taken from US8986961B2, “Fermentative production of acetone from renewable resources by means of novel metabolic pathway” (Evonik Degussa GmbH, priority 2007, dated 2015).
“And” between values parts separate entries of the source, which are not always exact repeats. Identical values can stand only once.

Columns and labels:
[1] = tested on: acyl-CoA synthetase/acyl-CoA thiokinase (with AMP formation; EC 6.2.1.2); conditions: purified enzyme, Shimizu et al. 1981; read-out: Km for substrate; cited from earlier work
[2] = biological target: T1, Acetoacetyl-CoA synthetase (AACS) (Rhizobium meliloti, UniProt Q9Z3R3); conditions: purified AACS, DTNB assay
T1 sequence (Q9Z3R3 1-650): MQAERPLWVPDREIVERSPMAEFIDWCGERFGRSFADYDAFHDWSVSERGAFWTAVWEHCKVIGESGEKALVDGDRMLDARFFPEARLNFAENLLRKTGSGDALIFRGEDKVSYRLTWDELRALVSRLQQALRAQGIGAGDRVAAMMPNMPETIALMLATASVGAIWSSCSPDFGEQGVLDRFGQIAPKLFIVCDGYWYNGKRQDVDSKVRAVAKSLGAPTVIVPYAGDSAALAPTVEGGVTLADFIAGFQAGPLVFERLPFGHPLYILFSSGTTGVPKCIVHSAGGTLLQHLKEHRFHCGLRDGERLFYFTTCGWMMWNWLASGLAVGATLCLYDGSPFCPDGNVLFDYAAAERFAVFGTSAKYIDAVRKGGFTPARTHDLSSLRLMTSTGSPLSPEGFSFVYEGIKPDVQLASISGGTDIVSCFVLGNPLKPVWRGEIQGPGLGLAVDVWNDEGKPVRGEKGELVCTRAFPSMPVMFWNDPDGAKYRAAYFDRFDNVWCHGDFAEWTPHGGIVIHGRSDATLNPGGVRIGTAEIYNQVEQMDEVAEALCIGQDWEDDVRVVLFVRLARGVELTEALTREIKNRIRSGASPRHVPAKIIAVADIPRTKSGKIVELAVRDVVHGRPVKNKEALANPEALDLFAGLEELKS
Description: (§1) The resulting fractions were combined and employed for the activity determination. […] In the DTNB assay, the terminal sulfhydryl group of CoA, which has been liberated by the enzymatic conversion to acetoacetate or acetate, reacts with DTNB to give a coloured product which can be determined by photometry at 412 nm.

[3] = biological target: T2, Thioesterase II (TEIIsrf) (Bacillus subtilis, UniProt Q08788); conditions: read-out: Km of TEIIsrf for substrate; purified His-tagged TEIIsrf, DTNB assay 412 nm, Lineweaver-Burk
T2 sequence (Q08788 with tags, fused parts or gaps): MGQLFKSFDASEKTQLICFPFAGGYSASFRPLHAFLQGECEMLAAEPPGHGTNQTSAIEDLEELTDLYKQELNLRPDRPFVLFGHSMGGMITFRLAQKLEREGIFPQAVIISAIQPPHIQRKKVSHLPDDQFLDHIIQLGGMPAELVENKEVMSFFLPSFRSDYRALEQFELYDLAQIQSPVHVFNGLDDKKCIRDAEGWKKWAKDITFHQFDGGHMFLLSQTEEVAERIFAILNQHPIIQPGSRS
Description: (§2) The intended activity measurement using the DTNB assay [5,5′-dithiobis(2-nitrobenzoic acid)], with which free SH groups are determined, required purification of the protein. This took place with the assistance of FPLC via the fused His tag of TEIIsrf by means of metal chelate affinity chromatography on Ni^2+-NTA agarose and increasing imidazole gradient.
(§3) For this purpose, initially the cells were harvested (5000×g, 15 min, 4° C.), suspended in 3 ml/g fresh weight of cell disruption buffer (50 mM HEPES, 300 mM NaCl, pH 7.8) and stored if necessary at −20° C. The cells were disrupted by ultrasound treatment (Sonicator Bandelin Sonopuls, Bandelin Berlin), and the crude extract was obtained by centrifugation (30 000×g, 30 min, 4° C.). Purification took place on an FPLC system (Pharmacia Biotech GmbH). 3.5 ml of crude extract were loaded onto the Ni^2+-NTA agarose column (Qiagen Superflow, bed volume 5 ml) which had been prepared and equilibrated (50 mM HEPES, 300 mM NaCl, 30 mM imidazole, pH 7) in accordance with the manufacturer's instructions. […]
as §1

[4] = biological target: YbgC acyl-CoA thioesterase (EC 3.1.2.18) (Haemophilus influenzae, UniProt P44679); conditions: Zhuang et al. 2002; read-out: Km of YbgC for substrate; cited from earlier work
Sequence of YbgC acyl-CoA thioesterase (EC 3.1.2.18) (P44679 whole entry): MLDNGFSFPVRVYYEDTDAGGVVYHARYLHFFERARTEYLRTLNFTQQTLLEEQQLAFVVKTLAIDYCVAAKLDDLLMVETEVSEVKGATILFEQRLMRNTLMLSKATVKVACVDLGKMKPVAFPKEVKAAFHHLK

[5] = tested on: CC(=O)SCCNC(=O)CCNC(=O)[C@H](O)C(C)(C)COP(=O)(O)OP(=O)(O)OC[C@H]1O[C@@H](n2cnc3c(N)ncnc32)[C@H](O)[C@@H]1OP(=O)(O)O; assay: purified protein, by the assay type; conditions: other: YbgC elution fractions (IMPACT system), DTNB assay; measurements varied
[6] = tested on: CC(=O)CC(=O)SCCNC(=O)CCNC(=O)[C@H](O)C(C)(C)COP(=O)(O)OP(=O)(O)OC[C@H]1O[C@@H](n2cnc3c(N)ncnc32)[C@H](O)[C@@H]1OP(=O)(O)O; assay: purified protein, by the assay type; conditions: other: YbgC elution fractions (IMPACT system), DTNB assay; measurements varied
Description: as §1
Expression took place in E. coli BL21 (DE3) in LBAmp medium until induction at an OD600nm of ˜0.5 with 0.5 mM IPTG at 37° C., and thereafter the culture was incubated at 20° C. and 150 rpm for a further 6 h. The heterologously expressed fusion protein (approx. 70 kDa) binds to chitin. Addition of DTT causes a conformational change and induces cutting out of the target protein (approx. 15 kDa), which can subsequently be eluted.

E. coli HB101 = assay: Acetone formation in E. coli HB101, 5 ml cultures; type: cell-based, Escherichia coli; conditions: HB101, LBAmp, 5 ml culture, 37° C., glucose 20 g/l, cell-free supernatant, gas chromatography
Description: All the resulting plasmid variants (see Table 1) were investigated for acetone formation in the E. coli cloning strain HB101. The analyses took place on the 5 ml scale in LB medium with ampicillin (100 μg/ml) after inoculation from appropriate precultures and after incubation at 37° C. and 200 rpm. The optical density (600 nm) was followed by photometry and, at a value of about 0.5-0.6, expression of the cloned genes was induced by adding 1 mM IPTG (isopropyl β-D-thiogalactopyrano-side) and, after 3-4 h, glucose (20 g/l) was added. No induction took place with the variants under the control of the thiolase promoter because it was assumed that constitutive expression takes place. Samples were taken at particular times over a period of about 48 h, and the concentration of acetone and acetate in the cell-free medium supernatant was determined by gas chromatography. Additional glucose doses optionally took place in varying amounts (in the range 10-40 g/l) either 4 h after induction or else simultaneously with the induction.

[7] = substrate: CC(=O)SCCNC(=O)CCNC(=O)[C@H](O)C(C)(C)COP(=O)(O)OP(=O)(O)OC[C@H]1O[C@@H](n2cnc3c(N)ncnc32)[C@H](O)[C@@H]1OP(=O)(O)O; assay: purified protein, by the assay type; conditions: other: purified His-tagged AACS (peak 2), DTNB assay
[8] = substrate: CC(=O)CC(=O)SCCNC(=O)CCNC(=O)[C@H](O)C(C)(C)COP(=O)(O)OP(=O)(O)OC[C@H]1O[C@@H](n2cnc3c(N)ncnc32)[C@H](O)[C@@H]1OP(=O)(O)O; assay: purified protein, by the assay type; conditions: other: purified His-tagged TEIIsrf, DTNB assay 412 nm, Lineweaver-Burk
Description: as §2, §3, §1

CCC(=O)C(=O)O [2-ketobutyrate]
Km [1]: 25 µM

CC(=O)CC(=O)SCCNC(=O)CCNC(=O)[C@H](O)C(C)(C)COP(=O)(O)OP(=O)(O)OC[C@H]1O[C@@H](n2cnc3c(N)ncnc32)[C@H](O)[C@@H]1OP(=O)(O)O [acetoacetyl-CoA]
specific activity of the enzyme with substrate [2]: 0.0038 µmol/min/mg

CC(=O)SCCNC(=O)CCNC(=O)[C@H](O)C(C)(C)COP(=O)(O)OP(=O)(O)OC[C@H]1O[C@@H](n2cnc3c(N)ncnc32)[C@H](O)[C@@H]1OP(=O)(O)O [acetyl-CoA]
Km [3]: 200 µM

CCCC(=O)SCCNC(=O)CCNC(=O)[C@H](O)C(C)(C)COP(=O)(O)OP(=O)(O)OC[C@H]1O[C@@H](n2cnc3c(N)ncnc32)[C@H](O)[C@@H]1OP(=O)(O)O [butyryl-CoA]
Km [4]: 24000 µM | Km [1]: 10 µM

Acyl-CoA thioesterase YbgC (Haemophilus influenzae Rd KW20)
Km [5]: 530 µM | Km [6]: 140 µM

pUC18att: plasmid SEQ ID No. 10; teIIsrf, adc, thlA in pUC18 under thl promoter
Max. acetone concentration (E. coli HB101): 35 mM and 2.0 g/l

β-hydroxybutyrate-CoA
Km [4]: 20000 µM | Km [1]: 25 µM

B1: Acetoacetyl-CoA synthetase (AACS) (Sinorhizobium meliloti 1021) (protein)
chain: MQAERPLWVPDREIVERSPMAEFIDWCGERFGRSFADYDAFHDWSVSERGAFWTAVWEHCKVIGESGEKALVDGDRMLDARFFPEARLNFAENLLRKTGSGDALIFRGEDKVSYRLTWDELRALVSRLQQALRAQGIGAGDRVAAMMPNMPETIALMLATASVGAIWSSCSPDFGEQGVLDRFGQIAPKLFIVCDGYWYNGKRQDVDSKVRAVAKSLGAPTVIVPYAGDSAALAPTVEGGVTLADFIAGFQAGPLVFERLPFGHPLYILFSSGTTGVPKCIVHSAGGTLLQHLKEHRFHCGLRDGERLFYFTTCGWMMWNWLASGLAVGATLCLYDGSPFCPDGNVLFDYAAAERFAVFGTSAKYIDAVRKGGFTPARTHDLSSLRLMTSTGSPLSPEGFSFVYEGIKPDVQLASISGGTDIVSCFVLGNPLKPVWRGEIQGPGLGLAVDVWNDEGKPVRGEKGELVCTRAFPSMPVMFWNDPDGAKYRAAYFDRFDNVWCHGDFAEWTPHGGIVIHGRSDATLNPGGVRIGTAEIYNQVEQMDEVAEALCIGQDWEDDVRVVLFVRLARGVELTEALTREIKNRIRSGASPRHVPAKIIAVADIPRTKSGKIVELAVRDVVHGRPVKNKEALANPEALDLFAGLEELKS
Km [7]: 700 µM

B2: Thioesterase II (TEIIsrf) (Bacillus subtilis subsp. subtilis str. 168) (protein)
chain: MGQLFKSFDASEKTQLICFPFAGGYSASFRPLHAFLQGECEMLAAEPPGHGTNQTSAIEDLEELTDLYKQELNLRPDRPFVLFGHSMGGMITFRLAQKLEREGIFPQAVIISAIQPPHIQRKKVSHLPDDQFLDHIIQLGGMPAELVENKEVMSFFLPSFRSDYRALEQFELYDLAQIQSPVHVFNGLDDKKCIRDAEGWKKWAKDITFHQFDGGHMFLLSQTEEVAERIFAILNQHPIIQPGSRS
Km [8]: 770 µM
